Measured values from patent US5783558A, “Parathormone fragments, their preparation and medicaments containing these” (Boehringer Mannheim GmbH, priority 1992, dated 1998).

Experiments:
UMR 106 cells = test: DNA synthesis capacity of PTH(3-X) fragments on UMR 106 cells ([3H]-thymidine incorporation); type: cell-based
From the text: DNA synthesis capacity on PTH-(3-X) fragments
An increased DNA synthesis capacity on UMR 106 cells was also observed with fragments, the N-terminus of which was shortened by two amino acids. An action maximum was again present when the chain length lay between 34 and 36 amino acids (cf. Tab. 6). This finding is surprising since it is known that a deletion of the amino acids +1 or +1 and +2 leads to the loss of the cAMP induction, combined with the loss of the calcium-mobilising properties of the PTH. An anabolic (mitogenic) activity of N-terminal shortened PTH fragments has hitherto not been described.

sterna organ cultures [1] = test: Mitogeneity on sterna organ cultures; type: cell-based; conditions: n=4
Protocol: Mitogeneity on sterna organ cultures
The mitogeneity of the new fragments was tested in organ cultures from sterna and it was ascertained that this activity was more strongly marked than in the case of the known fragments hPTH(1-34) and hPTH(1-38)(cf. Tab. 2).

sterna organ cultures [2] = test: cAMP stimulation on sterna organ cultures; type: cell-based; conditions: for pMol cAMP: 100 nm inductor, n=4; for Induction of cAMP formation in words: compared with PTH(1-34)
Protocol: (§1) In organ cultures from sterna, as well as on membrane fractions from pigs' kidneys was measured the induction of the cAMP formation by various PTH peptides. […] This is of importance since the catabolic, i.e. calcium-mobilising properties of PTH are, as is known, involved with an increase of the cAMP (Schluter et al. (1989), J. Biol. Chem. 264, 19:11087-11092; Lowik et al., (1988), Calcif Tissue Int. 43:7-18). These findings are plausible and, therefore, support the above-mentioned findings which show an increase of the anabolic properties of the peptide in the case of a chain length between 35 and 36 amino acids.

rats = test: Ca retention (Ca balance) in growing rats; type: in vivo, rat; design: Ca retention (mg per day) average value: dose or concentration left out as unconfirmed; conditions: for Ca retention (mg per day) average value / Ca retention % increase: male CD rats, daily subcutaneous, 10 days; for Ca retention (mg per day) average value: equimolar doses, balance measured during last 3 days; for Ca retention in words: rats, compared with hPTH(1-n), n=34, 37, 38; for Ca retention % increase: versus control
Protocol: Determination of the action of various PTH fragments on the Ca retention in the case of rats.
The measurement of the Ca balance in growing rats is a suitable model to test in vivo the effectiveness of a systemically administered substance on the bone metabolism. In the case of the Ca balance, the Ca flows in and out of the body are measured and the Ca retention (balance) calculated therefrom. It is thereby taken into account that the bones store about 99% of the body calcium, whereas the plasma calcium level remains constant. The amount of calcium retained in the body from the nutrition can, therefore, be regarded as proportional to the growth in the bone mass.
As experimental animals for the investigations, there served male CD rats which, at the beginning of the experiment, were 10 weeks old and weighed 250-300 g. The experimental animals were kept individually in commercially-available metabolic cages. An automatic separation of faeces and urine took place in the metabolic cages. Both fractions were collected quantitatively in collection containers and could be analyzed separately from one another.
As feed there served a standard diet for rats of meal-like consistency which was pasted with aqua dist. in the ratio of 1:1. The daily provided amount of feed was so adapted to the feed requirement of the animals in the sense of a so-called "group feedings" that they were completely eaten by all animals. The daily food ration amounted to 20 g (wet feed). Aqua dist. was offerred to the animals ad libitum.
All test substances were injected daily subcutaneously in equimolar doses (corresponding to […] hPTH(1-34)×kg^-1 ×day^-1), over 10 days. Of this, the first 7 days served for the adaptation of the animals, whereas the measurement of the Ca balance took place during the last 3 days.
The Ca intake was calculated via the amount of feed taken up and the experimentally determined Ca content of the feed. For this purpose, from the feed batch of each day, an aliquot was dried to constant weight and the water content determined from the comparison of wet and dry weight. Subsequently, 2×500 mg of the dried feed was digested with a laboratory microwave apparatus in conc. acids as follows: To 500 mg of dried feed were successively pipetted 3 ml HNO3 (conc.), 1 ml HCl (conc.) and 1 ml H2 O2 (30%). After the subsidence of the spontaneous oxidation reaction (foaming up), there followed the digestion pressure-controlled in closed digestion containers of Teflon PFA. The pressure/time steps were thereby successively following passed through: 40 psi (276 kpa), 5 min; 80 psi (552 kPa), 5 min; 150 psi ([…]); 10 min. To the cooled digest were then again added 2 ml H 2 O2 (30%) in order to test the completeness of the digestion reaction (no more foaming up).The digest was made up with a 1% lanthanum nitrate solution (v/v in 0.3% HCl) ad 100 ml. For the measurement of the Ca content on a flame atom absorption spectrometer (AAS), the samples were again dilute 1:100 with 1% lanthanum nitrate solution. The Ca intake was then calculated from the taken-up amount of feed and the measured water and Ca content.
The Ca loss via the faeces was then determined analogously to the Ca intake: Determination of the water content, acidic digestion in the microwave apparatus under the same conditions and subsequent measurement of the Ca content on the AAS.
In the collection container for the urine was placed 2 ml 10% HCl in order to prevent a precipitation of urate. After the end of the experiment, the urine volume was determined by weighing and subsequently an aliquot thereof diluted with 1% lanthanum nitrate solution (v/v in 0.3% HCl) in the ratio of 1:100. The determination of the Ca content of the samples took place on the AAS.

[3] = system: membrane fractions from pigs' kidneys; test: cAMP stimulation on porcine kidney membrane; type: biochemical, pig; conditions: for Induction of cAMP formation in words: membrane fractions from pigs' kidneys, compared with PTH(1-34); for pMol cAMP/mg protein ± SEM: porcine kidney membrane, n=3
Protocol: as §1

ROS 17/2.8 cells = test: DNA synthesis capacity on ROS 17/2.8 cells ([3H]-thymidine incorporation); type: cell-based; conditions: for DNA synthesis E/C / [^3 H]-thymidine incorporation (cpm): hPTH(1-X) 100 nM, ROS/2.8 cells
Protocol: DNA synthesis capacity on ROS 17/2.8 cells
The DNA synthesis capacity was measured on ROS 17/2.8 cells. […] Tab. 3: DNA synthesis hPTH(1-X), 100 nM, ROS/2.8 cells

| Substance | DNA synthesis E/C (UMR 106 cells; PTH(3-X) 100 nM) | [^3 H]-thymidine incorporation (cpm) (UMR 106 cells; PTH(3-X) 100 nM) | DNA synthesis E/C (UMR 106 cells; PTH(3-X) 300 nM) | [^3 H]-thymidine incorporation (UMR 106 cells; PTH(3-X) 300 nM) | Mitogeneity E/C +/- SEM (sterna organ cultures [1]) | pMol cAMP (sterna organ cultures [2]) | Induction of cAMP formation in words (sterna organ cultures [2]) | Ca retention (mg per day) average value (rats) | Ca retention in words (rats) | Ca retention % increase (rats) | Induction of cAMP formation in words [3] | pMol cAMP/mg protein ± SEM [3] | DNA synthesis capacity in words (ROS 17/2.8 cells; ROS 17/2.8 cells, compared with other fragments) | DNA synthesis E/C (ROS 17/2.8 cells) | [^3 H]-thymidine incorporation (cpm) (ROS 17/2.8 cells) |
| --- | --- | --- | --- | --- | --- | --- | --- | --- | --- | --- | --- | --- | --- | --- | --- |
| PTH (3-34): PTH fragment, N-terminus shortened by two amino acids, positions 3-34 (SEIQLMHNLGKHLNSMERVEWLRKKLQDVHNF; Parathyroid hormone; UniProt P01270 34-65, looked up, fragment) | 1.9 ± 0.12 | 1,748 ± 150 cpm | 3.6 ± 0.31 | 3,516 ± 297 | – | – | – | – | – | – | – | – | – | – | – |
| PTH (3-37): PTH fragment, N-terminus shortened by two amino acids, positions 3-37 (SEIQLMHNLGKHLNSMERVEWLRKKLQDVHNFVAL; Parathyroid hormone; UniProt P01270 34-68, looked up, fragment) | 2.3 ± 0.06 | 2,161 ± 74 cpm | 4.1 ± 0.28 | 3,962 ± 268 | – | – | – | – | – | – | – | – | – | – | – |
| PTH (3-38): PTH fragment, N-terminus shortened by two amino acids, positions 3-38 (SEIQLMHNLGKHLNSMERVEWLRKKLQDVHNFVALG; Parathyroid hormone; UniProt P01270 34-69, looked up, fragment) | 2.1 ± 0.13 | 1,905 ± 159 cpm | 3.8 ± 0.43 | 3,701 ± 414 | – | – | – | – | – | – | – | – | – | – | – |
| Ser-Val-Ser-Glu-Ile-Gln-Leu-Met-His-Asn-Leu-Gly-Lys-His-Leu-Asn-Ser-Met-Glu-Arg-Val-Glu-Trp-Leu-Arg-Lys-Lys-Leu-Gln-Asp-Val-His-Asn-Phe-Val (SVSEIQLMHNLGKHLNSMERVEWLRKKLQDVHNFV) [hPTH(1-35)] | – | – | – | – | 3.13 +/- 0.57 | 18.2 pMol | decreased | 108.6 mg per day | higher Ca retention | 119% | decreased | 82.4 ± 0.4 pMol cAMP/mg protein | more strongly increased | 4.1 ± 0.43 | 2,686 ± 282 cpm |
| Ser-Val-Ser-Glu-Ile-Gln-Leu-Met-His-Asn-Leu-Gly-Lys-His-Leu-Asn-Ser-Met-Glu-Arg-Val-Glu-Trp-Leu-Arg-Lys-Lys-Leu-Gln-Asp-Val-His-Asn-Phe-Val-Ala (SVSEIQLMHNLGKHLNSMERVEWLRKKLQDVHNFVA) [hPTH(1-36)] | – | – | – | – | 3.37 +/- 0.58 | 17.6 pMol | decreased | 110.5 mg per day | higher Ca retention | 123% | decreased | 44.6 ± 1.8 pMol cAMP/mg protein | – | 3.2 ± 0.37 | 2,136 ± 246 cpm |
| hPTH(1-37): known human parathyroid hormone fragment, amino acids 1-37 (WO 91/06564) (SVSEIQLMHNLGKHLNSMERVEWLRKKLQDVHNFVAL; Parathyroid hormone; UniProt P01270 32-68, looked up, fragment) [reference compound] | – | – | – | – | – | – | – | 96.0 mg per day | – | 94% | – | – | – | 3.1 ± 0.38 | 2,021 ± 251 cpm |
| hPTH(1-38): known human parathyroid hormone fragment, amino acids 1-38, state of the art (SVSEIQLMHNLGKHLNSMERVEWLRKKLQDVHNFVALG; Parathyroid hormone; UniProt P01270 32-69, looked up, fragment) [reference compound] | – | – | – | – | 2.96 +/- 0.30 | – | – | 91.8 mg per day | – | 85% | – | – | – | – | – |
